Experimental data taken from US20210121456A1, “USE OF METHYLNALTREXONE TO ATTENUATE TUMOR PROGRESSION” (Salix Pharmaceuticals, Inc., priority 2014, published 2021).

Test system: patients with advanced cancers (and non-cancer advanced illness) and opioid-induced constipation
Test: Pooled post-hoc analysis of Study 1 and Study 2: deaths and overall survival
Format: in vivo, human
Method: Routine adverse event (AE) evaluations described in Example 3 were analyzed. AEs of tumor progression in specific cancers and survival analysis of the placebo and methylnaltrexone-treated cohorts in the clinical studies were tabulated. Both studies were randomized, placebo-controlled trials that involved a 2-week treatment period followed by a 2-week follow-up period. The enrolled subjects were advanced illness (incurable cancer or other end-stage disease) subjects with OIC who were receiving stable doses of laxatives and opioid analgesics. In the context of the study, a stable dose of opioid analgesics was defined as no reduction in the dose of opioid analgesic of ≥50% for at least three days before the first dose of MNTX. A stable dose of laxatives was defined as having a standing laxative order (and not PRN, or as-needed) for at least three days before the first dose of MNTX. A diagnosis of constipation was provided if the subject had (a) fewer than 3 bowel movements during the previous week by history and no clinically notable laxation in the 24 hours before the first dose of MNTX, or (b) no clinical notable laxation in the 48 hours before the first dose of MNTX. In Study 1 (Example 1), subjects received subcutaneous MNTX 0.15 mg/kg or placebo (PBO) every other day (QOD), and in Study 2 (Example 2) subjects received subcutaneous MNTX (8 mg or 12 mg based on body weight 38 to <62 kg or ≥62 kg, respectively) or placebo administered QOD. The 12 mg fixed dose was designed to correspond to the 0.15 mg/kg weight-based dose. Rescue-laxatives, enemas or manual disimpactions were not administered within 4 hours before or after each dose of MNTX. […] For statistical significance testing, the Fisher's exact test was used (p<0.05).
Subsequent to the initial pooled analysis in Example 3, the data from Study 1 and Study 2 was re-analyzed for overall survival (OS) in a post-hoc analysis. Overall survival (OS) was defined as the time interval from the treatment initiation to the date of death or the date of last follow up, whichever occurred first. […] In Study 2, 151 of the enrolled 229 patients were diagnosed with advanced cancers. […] FIG. 12 provides a schematic of the subjects with advanced cancers from the pooled studies that were analyzed in the subsequent analysis. Table 3 provides the patient characteristics from the subsequent pooled analysis of the two studies. Table 4 provides a distribution of the type of cancer diagnosed in the subjects analyzed for survival.
Table 7 lists the number of deaths and survivors in both the placebo and the methylnaltrexone-treated groups for subjects diagnosed with lung, breast, prostate, pancreatic and colon cancer. The groups are further categorized into methylnaltrexone responders and methylnaltrexone non-responders alone or in combination with the placebo group. The analysis included the results from the double-blind and open label phases of the studies. When the group of MNTX-treated subjects across both studies was examined, there was a significant difference in the percentage of subject deaths between the MNTX-responsive group and the MNTX non-responsive group, with the number of survivors in the MNTX-responsive group exceeding the number of survivors in the MNTX non-responsive group. […] For the analysis in Table 7, a subject with laxation within 0-4 hours after two of the first four doses of MNTX was considered a responder. The data in Table 6 may vary slightly from that in Table 4 based on how the subjects were coded as cancer patients during analysis of the data. […]
For the analysis carried out in this Example and in Example 3, a subject with laxation occurring from 0-4 hours after two of the first four doses of MNTX was considered a MNTX responder or responsive subject. Data for placebo patients who elected to participate in the open-label MNTX treatment phase was collected from the first 4 doses of open-label treatment. […]

[1] = Excluding crossover to MNTX (MNTX 117, placebo 61)
[2] = Patients on placebo (crossover to MNTX 51, placebo 61)
[3] = Table 6, Non-Responders (versus Responders < 4hr)
[4] = Table 6, Non-Responders (versus Responders < 8hr)
[5] = Table 6, Non-Responders (versus Responders < 12hr)
[6] = Table 6, Non-Responders (versus Responders < 24hr)
[7] = Table 7, MNTX All, Total of five cancers
[8] = Table 7, MNTX Non-Responders, Breast
[9] = Table 7, MNTX Non-Responders, Colon
[10] = Table 7, MNTX Non-Responders, Lung
[11] = Table 7, MNTX Non-Responders, Pancreas
[12] = Table 7, MNTX Non-Responders, Prostate
[13] = Table 7, MNTX Non-Responders, Total of five cancers
[14] = Table 7, MNTX Responders, Breast
[15] = Table 7, MNTX Responders, Colon
[16] = Table 7, MNTX Responders, Pancreas
[17] = Table 7, MNTX Responders, Prostate
[18] = Table 7, MNTX Responders, Total of five cancers

C[N@+]1(CC2CC2)CC[C@]23c4c5ccc(O)c4O[C@H]2C(=O)CC[C@@]3(O)[C@H]1C5.[Br-] [MNTX, (R)—N-(cyclopropylmethyl) noroxymorphone methobromide]
overall survival MNTX vs. placebo (134 patients with advanced illness other than cancer, p=0.88): no difference
Hazard Ratio, Treatment: MNTX vs. placebo (overall survival, Cox regression) (All patients (MNTX 117, placebo 112)): 0.70
Hazard Ratio, Response vs. no response [1]: 0.32
Hazard Ratio, Treatment: MNTX vs. placebo [1]: 0.32
Deaths (number) (MNTX All Patients, Cancer): 45
Deaths (number) (MNTX All Patients, Non-Cancer): 11
Deaths (%) (MNTX All Patients, Totals): (31.3%)
Deaths (number) (MNTX All Patients, Totals): 56
Deaths (number) (MNTX Non-Responders, Cancer): 23
Deaths (number) (MNTX Non-Responders, Non-Cancer): 5
Deaths (%) (MNTX Non-Responders, Totals): (39.4%)
Deaths (number) (MNTX Non-Responders, Totals): 28
Deaths (number) (MNTX Responders, Cancer): 22
Deaths (number) (MNTX Responders, Non-Cancer): 6
Deaths (%) (MNTX Responders, Totals): (25.9%)
Deaths (number) (MNTX Responders, Totals): 28
median overall survival (OS) (MNTX non-responsive group (45 subjects)): 58 days
overall survival (OS) (MNTX-responsive group, analysis before the updated analysis (FIG. 9)): 121 days
Hazard Ratio, Response vs. no response [2]: 0.64
Hazard Ratio, Treatment: MNTX vs. placebo [2]: 0.15
% Deaths [3]: 50.0%
Deaths [3]: 22
Survivors [3]: 22
% Deaths [4]: 53.8%
Deaths [4]: 21
Survivors [4]: 18
% Deaths [5]: 50.0%
Deaths [5]: 18
Survivors [5]: 18
% Deaths [6]: 48.4%
Deaths [6]: 15
Survivors [6]: 16
% Deaths (Table 6, Responders < 4hr): 31.5%
Deaths (Table 6, Responders < 4hr): 23
Survivors (Table 6, Responders < 4hr): 50
% Deaths (Table 6, Responders < 8hr): 30.8%
Deaths (Table 6, Responders < 8hr): 24
Survivors (Table 6, Responders < 8hr): 54
% Deaths (Table 6, Responders < 12hr): 33.3%
Deaths (Table 6, Responders < 12hr): 27
Survivors (Table 6, Responders < 12hr): 54
% Deaths (Table 6, Responders < 24hr): 34.9%
Deaths (Table 6, Responders < 24hr): 30
Survivors (Table 6, Responders < 24hr): 56
Deaths (Table 7, MNTX All, Breast): 3
Deaths (%) (Table 7, MNTX All, Breast): 21.4%
Survivors (Table 7, MNTX All, Breast): 11
Deaths (Table 7, MNTX All, Colon): 1
Deaths (%) (Table 7, MNTX All, Colon): 25.0%
Survivors (Table 7, MNTX All, Colon): 3
Deaths (Table 7, MNTX All, Lung): 14
Deaths (%) (Table 7, MNTX All, Lung): 45.2%
Survivors (Table 7, MNTX All, Lung): 17
Deaths (Table 7, MNTX All, Pancreas): 3
Deaths (%) (Table 7, MNTX All, Pancreas): 33.3%
Survivors (Table 7, MNTX All, Pancreas): 6
Deaths (Table 7, MNTX All, Prostate): 5
Deaths (%) (Table 7, MNTX All, Prostate): 41.7%
Survivors (Table 7, MNTX All, Prostate): 7
Deaths [7]: 26
Deaths (%) [7]: 37.7%
Survivors [7]: 43
Deaths [8]: 2
Deaths (%) [8]: 50.0%
Survivors [8]: 2
Deaths [9]: 0
Deaths (%) [9]: 0.0%
Survivors [9]: 1
Deaths [10]: 8
Deaths (%) [10]: 47.1%
Survivors [10]: 9
Deaths [11]: 3
Deaths (%) [11]: 75.0%
Survivors [11]: 1
Deaths [12]: 3
Deaths (%) [12]: 60.0%
Survivors [12]: 2
Deaths [13]: 16
Deaths (%) [13]: 51.6%
Survivors [13]: 15
Deaths (Table 7, MNTX Responders (laxation within 0-4 hours after two of the first four doses), Lung): 6
Deaths [14]: 1
Deaths (%) [14]: 10.0%
Survivors [14]: 9
Deaths [15]: 1
Deaths (%) [15]: 33.3%
Survivors [15]: 2
Deaths (%) (Table 7, MNTX Responders, Lung): 42.9%
Survivors (Table 7, MNTX Responders, Lung): 8
Deaths [16]: 0
Deaths (%) [16]: 0.0%
Survivors [16]: 5
Deaths [17]: 2
Deaths (%) [17]: 28.6%
Survivors [17]: 5
Deaths [18]: 10
Deaths (%) [18]: 26.3%
Survivors [18]: 28
median overall survival (OS) (cancer patients treated with MNTX (n=117)): 76 days
median overall survival (OS) (cancer patients with response to MNTX (n=72)): 118 days
median OS (lung cancer patients (n=15) with response to MNTX): 118 days
median OS (lung cancer, 32 patients treated with MNTX): 118 days
Deaths (pancreatic cancer, 4 patients with response to MNTX): no death
median OS (pancreatic cancer, 8 patients treated with MNTX): 76 days
survival extended after administration (pancreatic cancer, methylnaltrexone-responsive group, initial analysis (FIG. 12)): ~100 days
median OS (placebo patients (n=23) with response to MNTX during open-label treatment): 74 days
median overall survival (placebo patients (n=56) who crossed over to MNTX): 75 days
